These results are taken from PubChem BioAssay AID1996.

Molecules are shown by their SMILES. Values after ≈ are worked out from the molar mass of the structure shown.

For the data set the following is noted: buffer; pH 7.4; 200.0 µM.
The molecule `O=C(C(=O)N1CCOCC1)c1cn(Cc2ccccc2)c2ccccc12` registered a solubility (kinetic) of 6.4 µg/mL (≈ 18.4 µM).
The figure for `Cc1ccccc1COc1ccc(/C=C(\C#N)C(N)=O)cc1` is under 0.3 µg/mL.
`COc1ccc(N(C)S(=O)(=O)c2c(C)noc2C)c(OC)c1` gave a kinetic solubility of over 49 µg/mL.
`CC1(c2ccccc2)NC(=O)N(CC(=O)N2CC(=O)Nc3ccccc32)C1=O` (stereo unspecified) yielded a solubility (kinetic) of 23.2 µg/mL (≈ 61.3 µM).
With `COc1cc(OC)c(OC)cc1CNCc1ccc2c(c1)OCO2`, the kinetic solubility was over 49.7 µg/mL.
In turn, `CN(CC(=O)NCc1ccco1)CC(=O)Nc1ccc(F)c(F)c1F` came in with a kinetic solubility of 45.2 µg/mL (≈ 127 µM).
`CCOc1ccc(N2CC(C(=O)NCc3ccccc3)CC2=O)cc1` (stereo unspecified) registered a solubility (kinetic) of 9.8 µg/mL (≈ 29 µM).
Turning to `CCCN(CCC)C(=O)CC(c1ccccc1)c1ccco1` (stereo unspecified), the solubility (kinetic) is over 44.9 µg/mL.
`COc1ccc2[nH]cc(CCNC(C)=O)c2c1` showed a solubility (kinetic) of over 34.8 µg/mL.
Regarding `CC(C)C(NCC(=O)Nc1ccccc1C(=O)NC1CC1)c1ccccc1` (stereo unspecified), the solubility (kinetic) is over 54.8 µg/mL.
The figure for `CCOC(=O)CNC(=O)c1ccc(Br)s1` is over 43.8 µg/mL.
Turning to `COC(=O)COc1ccc(-c2nccc(-c3ccccn3)n2)cc1`, the solubility (kinetic) came to 2.4 µg/mL (≈ 7.47 µM).
The figure for `COP(=O)(OC)/C(C=O)=N/Nc1ccc([N+](=O)[O-])cc1` is over 45.2 µg/mL.
The figure for `C=C(C)Cn1cnc2cc(C)c(C)cc21` is over 30 µg/mL; for `COc1ccccc1N1CCN(CC(=O)c2c[nH]c3ccccc23)CC1` it is 6.6 µg/mL (≈ 18.9 µM); for `CC(C)NC(=O)CCc1nc2cccnc2n1-c1ccccc1` it is 43.3 µg/mL (≈ 140 µM).
In the case of `CC(C)c1ccc(C(=O)NCCCN2CCOCC2)cc1`, the solubility (kinetic) was over 43.6 µg/mL.
The figure for `O=C(NNC(=O)c1ccccc1-n1cccc1)c1ccc(F)cc1` is over 48.5 µg/mL; for `Cc1cc2nc3c(nc2cc1C)CCCC3` it is 24.2 µg/mL (≈ 114 µM); for `Cc1ccc[n+](CC(=O)Nc2ccc([N+](=O)[O-])cc2)c1.[Cl-]` it is over 46.2 µg/mL.
In turn, `COc1ccccc1NC(=O)CN1CCSc2ccccc21` showed a kinetic solubility of 3.1 µg/mL (≈ 9.86 µM).
Molecule `COc1ccc(-c2nc(N)ncc2-c2ccccc2OC)c(O)c1` came in with a solubility (kinetic) of 23.3 µg/mL (≈ 72.1 µM).
The figure for `N#CC1=C(S)N(c2ccc(F)cc2)C2(CCCCC2)NC1=O` is over 47.6 µg/mL.
Take `NS(=O)(=O)c1ccc(NC(=S)NC(=O)c2cccs2)cc1`: the kinetic solubility was 6.2 µg/mL (≈ 18.2 µM).
In the case of `CC(OCCN(C)C)C(=O)C12CC3CC(CC(C3)C1)C2.Cl` (stereo unspecified), the solubility (kinetic) came to 46.8 µg/mL.
The molecule `Cc1nc2ccccn2c1C(=O)NC1CCCC1` returned a kinetic solubility of over 36.5 µg/mL.
For `CC1CN(C/C(=N\O)C23CC4CC(CC(C4)C2)C3)CC(C)O1` (stereo unspecified), the kinetic solubility was over 46 µg/mL.
The figure for `CSc1nsc(SCC(=O)Nc2ccc(F)cc2F)n1` is over 50 µg/mL; for `CC(=O)c1ccc(NC(=O)CSc2nc3ccccc3c(=O)n2CCCN2CCOCC2)cc1` it is over 72.1 µg/mL.
Take `CCC1CCCCN1S(=O)(=O)c1ccc([N+](=O)[O-])cc1` (stereo unspecified): the solubility (kinetic) stood at 34.3 µg/mL (≈ 115 µM).
With `Cn1cnnc1SCC(=O)NC1CCCC1`, the solubility (kinetic) is over 36 µg/mL.
With `CC1CN(C(=O)CNC(=O)COc2ccccc2)CC(C)O1` (stereo unspecified), the solubility (kinetic) is over 46 µg/mL.
Regarding `CC(C)Oc1c(N2CCOCC2)c(=O)c1=O`, the solubility (kinetic) was over 33.8 µg/mL.
The molecule `COc1ccccc1C1CCN(Cc2c(C)[nH]c3ccccc23)CC1` had a kinetic solubility of over 50.2 µg/mL.
The figure for `Nc1nccnc1C(=O)OCC(=O)NNC(=O)c1ccccc1` is over 47.3 µg/mL; for `Cc1cc(=O)[nH]c(SCc2ccc(Cl)cc2)n1` it is 13.2 µg/mL (≈ 49.5 µM).
The molecule `COc1ccc(C(O)(CCN2CCOCC2)c2ccccc2)cc1` (stereo unspecified) registered a kinetic solubility of 41.1 µg/mL (≈ 126 µM).
The figure for `Cc1ccc(CN2CCN(C(=O)c3cccc4ccccc34)CC2)cc1.O=C(O)C(=O)O` is 59.6 µg/mL.
The figure for `O=C1CSC(c2ccc(Cl)cc2)N1c1cccnc1` (stereo unspecified) is 42.1 µg/mL (≈ 145 µM); for `CCSc1ccccc1C(=O)NCc1cccnc1` it is over 40.9 µg/mL.
`C[C@H](NC(=O)c1cccc([N+](=O)[O-])c1)C(=O)OCC(=O)c1ccccc1Br` registered a kinetic solubility of over 65.3 µg/mL.
As to `Cc1ccc(Nc2ccc([N+](=O)[O-])cn2)cc1Cl`, the solubility (kinetic) was under 0.2 µg/mL.
Molecule `Cc1ccc(Cn2c(N3CCNCC3)nc3c2c(=O)[nH]c(=O)n3C)cc1` displayed a kinetic solubility of 51.2 µg/mL (≈ 144 µM).
Turning to `CSc1ccccc1NC(=O)CN(C)CC(=O)Nc1ccc(S(=O)(=O)N2CCCC2)cc1`, the solubility (kinetic) was 1.3 µg/mL (≈ 2.73 µM).
With `COc1ccc(NC(=S)Nc2ccccc2Cl)cn1`, the kinetic solubility turned out to be 38.8 µg/mL (≈ 132 µM).
As to `CCOc1ccc(/C=C(\C#N)C(=O)NC2CC2)c(OCC)c1`, the kinetic solubility is 4.8 µg/mL (≈ 16 µM).
For the molecule `COc1ccc(NC(=O)Nc2ccon2)cc1OC`, the solubility (kinetic) is over 39.5 µg/mL.
`COc1ccc2oc(=O)c(C(=O)Nc3ccccc3C)cc2c1` registered a kinetic solubility of 2.3 µg/mL (≈ 7.44 µM).
For `O=C(COC(=O)CCSc1ccc(F)cc1)NCc1ccc(F)cc1`, the kinetic solubility was found to be 26.5 µg/mL (≈ 72.5 µM).
`CC(C)Cc1ccc(S(=O)(=O)Nc2ccccn2)cc1`: the kinetic solubility came out at 31.7 µg/mL (≈ 109 µM).
The molecule `Cc1ccc(NC(=O)c2ccc3c(c2)CCN3S(C)(=O)=O)cc1C` came in with a solubility (kinetic) of 2 µg/mL (≈ 5.81 µM). This solubility kinetic is about 16-fold lower than that of the molecule before.

One may read the solubility (kinetic) as solubility judged after dilution from a stock solution rather than from solid.
